# Laboratory results reported in patent US12371454B2, “Cyclic peptide compound having Kras inhibitory action” (priority 2019, dated 2025).
# pIC50: −log10 of the molar value. Starred links: 1 amine or outer side, 2 acyl side, 3 side chain; linkers in the order of their positions; H or OH if unused. Positions of bridges follow the written chain, without caps; N, C: chain ends. Non-standard residues stand in square brackets, D forms with d. Residues, ends and D or L forms follow the SMILES beside them. *: point of attachment. hPhe(3-Cl-4-CF3) = N[C@@H](CCc1ccc(C(F)(F)F)c(Cl)c1)C(=O)O; NMePhe(4-CF3) = CN[C@@H](Cc1ccc(C(F)(F)F)cc1)C(=O)O; hPhe(4-CF3) = N[C@@H](CCc1ccc(C(F)(F)F)cc1)C(=O)O; NMePhe(3-Cl) = CN[C@@H](Cc1cccc(Cl)c1)C(=O)O; NMePhe(4-Cl) = CN[C@@H](Cc1ccc(Cl)cc1)C(=O)O; NMePhe(4-Me) = CN[C@@H](Cc1ccc(C)cc1)C(=O)O; NMedβ3hAla = C[C@H](CC(=O)[*:2])N(C)[*:1]; NMePhe(2-F) = CN[C@@H](Cc1ccccc1F)C(=O)O; NMeGly(cPent) = CN[C@H](C(=O)O)C1CCCC1; Pro(4,4-F2) = O=C(O)[C@@H]1CC(F)(F)CN1; NMe3Pal = CN[C@@H](Cc1cccnc1)C(=O)O; NMeCha = CN[C@@H](CC1CCCCC1)C(=O)O; Azetidine(3,3-F2) = FC1(F)CN(*)C1; NMeCba = CN[C@@H](CC1CCC1)C(=O)O; NMeChg = CN[C@H](C(=O)O)C1CCCCC1; NMeF = CN[C@@H](Cc1ccccc1)C(=O)O; NMeI = CC[C@H](C)[C@H](NC)C(=O)O; NMeD = CN[C@@H](CC(=O)O)C(=O)O; CH2CONHtBu = CC(C)(C)NC(=O)C*; NMeL = CN[C@@H](CC(C)C)C(=O)O; NMeV = CN[C@H](C(=O)O)C(C)C; d(β3hA) = C[C@@H](N)CC(=O)O; NMeA = CN[C@@H](C)C(=O)O; NMeAib = CNC(C)(C)C(=O)O; Piperidide = C1CCN(*)CC1; Pyrrolidide = C1CCN(*)C1; dNMeA = CN[C@H](C)C(=O)O; Ac5c = NC1(C(=O)O)CCCC1; Aze = O=C(O)[C@@H]1CCN1; Ac4c = NC1(C(=O)O)CCC1; Sar = CNCC(=O)O; Propyl = CCC*
# Biological target: T1, Kras and SOS1 (biotin-tagged human Kras loaded with GDP, His-tagged human SOS1) (Homo sapiens, UniProt P01116, G12D)
# T1 construct: made in house; host or cells: E. coli (stated for Kras only)
# T1 sequence (P01116 1-188 isoform P01116-2 G12D): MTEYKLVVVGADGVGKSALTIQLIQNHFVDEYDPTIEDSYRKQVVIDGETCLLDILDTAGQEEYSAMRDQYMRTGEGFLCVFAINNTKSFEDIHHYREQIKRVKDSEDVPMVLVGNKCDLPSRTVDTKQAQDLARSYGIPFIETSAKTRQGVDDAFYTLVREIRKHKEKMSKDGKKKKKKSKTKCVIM
# Test: Protein-protein interaction inhibition between Kras and SOS1 (KrasGl2D-SOS PPI) using AlphaScreen
# Type: binding
# Conditions: AlphaScreen; biotin-tagged human Kras loaded with GDP, His-tagged human SOS1; read-out: KRAS G12D-SOS PPI IC50
# Experimental: Protein-Protein Interaction Inhibition Between Kras and SOS1 (KrasGl2D-SOS PPI) Using AlphaScreen
# Protein-protein interaction inhibition (PPI) between Kras and SOS1 was measured by energy transfer from nickel-conjugated donor beads to streptavidin-conjugated acceptor beads using biotin-tagged human Kras expressed in E. coli and loaded with GDP after purification and His-tagged human SOS1 enzyme. This measurement utilizes the phenomenon in which donor beads are irradiated with light at 680 nm, such that energy is transferred to acceptor beads through singlet oxygen and light at 520-620 nm is detected from the acceptor beads.
# Inhibition of binding between K-ras and SOS1 is known to inhibit signaling downstream of Kras.
row,SMILES,pIC50
1,CC[C@H](C)[C@@H]1NC(=O)[C@H](CC2CCCCC2)N(C)C(=O)C[C@@H](C)NC(=O)[C@H](C(C)C)N(C)C(=O)C2(CCCC2)NC(=O)[C@@H]2CCCN2C(=O)[C@H](CCc2ccc(C(F)(F)F)c(Cl)c2)NC(=O)CN(C)C(=O)[C@H](CC2CCCCC2)N(C)C(=O)[C@@H]2CCN2C(=O)[C@H](C)N(C)C1=O [Compound 38] (cyclo([Ac5c][NMeV][d(β3hA)][NMeCha]I[NMeA][Aze][NMeCha][Sar][hPhe(3-Cl-4-CF3)]P)),6.80
2,"CCCOC[C@@H]1NC(=O)[C@H](CC(=O)N2CC(F)(F)C2)N(C)C(=O)[C@H](CCc2ccc(C(F)(F)F)c(Cl)c2)NC(=O)CN(C)C(=O)[C@H](CC2CCCCC2)N(C)C(=O)[C@@H]2CCN2C(=O)[C@H](C)N(C)C(=O)[C@H]([C@@H](C)CC)NC(=O)[C@H](CC(C)C)N(C)C(=O)C[C@@H](C(=O)N(C)C)N(C)C(=O)[C@H](C2CCCC2)N(C)C1=O [Compound 41] ([NMeL]I[NMeA][Aze][NMeCha][Sar][hPhe(3-Cl-4-CF3)][NMeD](Azetidine(3,3-F2))S(Propyl)[NMeGly(cPent)][NMeD]-NMe2; lactam N-11)",7.96
3,CC[C@H](C)[C@@H]1NC(=O)[C@H](C)N(C)C(=O)C[C@@H](C)NC(=O)[C@H](C2CCCC2)N(C)C(=O)C2(CCCC2)NC(=O)[C@@H]2CCCN2C(=O)[C@H](CCc2ccc(C(F)(F)F)c(Cl)c2)NC(=O)[C@@H](C)N(C)C(=O)[C@H](Cc2cccc(Cl)c2)N(C)C(=O)[C@@H]2CCN2C(=O)[C@H](C)N(C)C1=O [Compound 42] (cyclo([Ac5c][NMeGly(cPent)][d(β3hA)][NMeA]I[NMeA][Aze][NMePhe(3-Cl)][dNMeA][hPhe(3-Cl-4-CF3)]P)),6.72
4,CC[C@H](C)[C@@H]1NC(=O)[C@H](CC(C)C)N(C)C(=O)C[C@@H](C(=O)N(C)C)N(C)C(=O)[C@H](C2CCCC2)N(C)C(=O)C2(CCCC2)NC(=O)[C@H](Cc2ccccc2F)N(C)C(=O)[C@H](CCc2ccc(C(F)(F)F)c(Cl)c2)NC(=O)CN(C)C(=O)[C@H](CC2CCCCC2)N(C)C(=O)[C@@H]2CCN2C(=O)[C@H](C)N(C)C1=O [Compound 43] ([NMeL]I[NMeA][Aze][NMeCha][Sar][hPhe(3-Cl-4-CF3)][NMePhe(2-F)][Ac5c][NMeGly(cPent)][NMeD]-NMe2; lactam N-11),7.51
5,CC[C@H](C)[C@@H]1NC(=O)[C@H](C)N(C)C(=O)C[C@@H](C(=O)N2CCCC2)NC(=O)[C@H](CC(C)C)N(C)C(=O)[C@H](CC(C)C)N(C)C(=O)[C@H](CC(C)C)NC(=O)[C@H](CCc2ccc(C(F)(F)F)cc2)NC(=O)CN(C)C(=O)[C@H](Cc2ccc(Cl)cc2)N(C)C(=O)CN(C)C(=O)CN(C)C1=O [Compound 46] ([NMeA]I[Sar][Sar][NMePhe(4-Cl)][Sar][hPhe(4-CF3)]L[NMeL][NMeL]D-Pyrrolidide; lactam N-11),6.92
6,CC[C@H](C)[C@@H]1NC(=O)[C@H](C)N(C)C(=O)C[C@@H](C(=O)N2CCCC2)NC(=O)[C@H](CC(C)C)N(C)C(=O)[C@H](Cc2ccccc2)N(C)C(=O)[C@H](CC(C)C)NC(=O)[C@H](CCc2ccc(C(F)(F)F)cc2)NC(=O)CN(C)C(=O)[C@H](Cc2ccc(Cl)cc2)N(C)C(=O)CN(C)C(=O)CN(C)C1=O [Compound 50] ([NMeA]I[Sar][Sar][NMePhe(4-Cl)][Sar][hPhe(4-CF3)]L[NMeF][NMeL]D-Pyrrolidide; lactam N-11),7.55
7,CC[C@H](C)[C@@H]1NC(=O)[C@H](C)N(C)C(=O)C[C@@H](C(=O)N2CCCC2)NC(=O)[C@H](CC(C)C)N(C)C(=O)[C@H](COCC(=O)NC(C)(C)C)NC(=O)[C@H](CC(C)C)NC(=O)[C@H](CCc2ccc(C(F)(F)F)cc2)NC(=O)CN(C)C(=O)[C@H](Cc2ccc(Cl)cc2)N(C)C(=O)CN(C)C(=O)CN(C)C1=O [Compound 53] ([NMeA]I[Sar][Sar][NMePhe(4-Cl)][Sar][hPhe(4-CF3)]LS(CH2CONHtBu)[NMeL]D-Pyrrolidide; lactam N-11),6.92
8,CC[C@H](C)[C@@H]1NC(=O)[C@H](CC(C)C)N(C)C(=O)C[C@@H](C)N(C)C(=O)[C@H](CC(C)C)NC(=O)C(C)(C)N(C)C(=O)[C@H](CC(C)C)NC(=O)[C@H](CCc2ccc(C(F)(F)F)c(Cl)c2)NC(=O)CN(C)C(=O)[C@H](CC2CCCCC2)N(C)C(=O)[C@@H]2CCN2C(=O)CN(C)C1=O [Compound 57] (cyclo([Aze][NMeCha][Sar][hPhe(3-Cl-4-CF3)]L[NMeAib]L[NMedβ3hAla][NMeL]I[Sar])),7.80
9,CC[C@H](C)[C@@H]1NC(=O)[C@H](CC(C)C)N(C)C(=O)C[C@@H](C)NC(=O)[C@H](CC2CCC2)N(C)C(=O)C2(CCCC2)NC(=O)[C@@H]2CCCN2C(=O)[C@H](CCc2ccc(C(F)(F)F)c(Cl)c2)NC(=O)CN(C)C(=O)[C@H](CC2CCCCC2)N(C)C(=O)CN(C)C(=O)CN(C)C1=O [Compound 59] (cyclo([Ac5c][NMeCba][d(β3hA)][NMeL]I[Sar][Sar][NMeCha][Sar][hPhe(3-Cl-4-CF3)]P)),7.44
10,"CC[C@H](C)[C@@H]1NC(=O)[C@H](CC(C)C)N(C)C(=O)C[C@@H](C)N(C)C(=O)[C@H](C2CCCC2)N(C)C(=O)C2(CCC2)NC(=O)[C@@H]2CC(F)(F)CN2C(=O)[C@H](CCc2ccc(C(F)(F)F)c(Cl)c2)NC(=O)CN(C)C(=O)[C@H](Cc2ccc(C(F)(F)F)cc2)N(C)C(=O)CN(C)C(=O)CN(C)C1=O [Compound 62] (cyclo([Ac4c][NMeGly(cPent)][NMedβ3hAla][NMeL]I[Sar][Sar][NMePhe(4-CF3)][Sar][hPhe(3-Cl-4-CF3)][Pro(4,4-F2)]))",8.42
11,CC[C@H](C)[C@@H]1NC(=O)[C@H](CC(C)C)N(C)C(=O)C[C@@H](C(=O)N2CCCCC2)N(C)C(=O)[C@H](C2CCCCC2)N(C)C(=O)C2(CCCC2)NC(=O)[C@H](Cc2cccnc2)N(C)C(=O)[C@H](CCc2ccc(C(F)(F)F)c(Cl)c2)NC(=O)CN(C)C(=O)[C@H](CC2CCCCC2)N(C)C(=O)CN(C)C(=O)CN(C)C1=O [Compound 63] ([NMeL]I[Sar][Sar][NMeCha][Sar][hPhe(3-Cl-4-CF3)][NMe3Pal][Ac5c][NMeChg][NMeD]-Piperidide; lactam N-11),8.43
12,CC[C@H](C)[C@@H]1NC(=O)[C@H](CC(C)C)N(C)C(=O)C[C@@H](C(=O)N(C)C)N(C)C(=O)[C@H]([C@@H](C)CC)N(C)C(=O)C2(CCCC2)NC(=O)[C@@H](C)NC(=O)[C@H](CCc2ccc(C(F)(F)F)c(Cl)c2)NC(=O)CN(C)C(=O)[C@H](Cc2ccc(C)cc2)N(C)C(=O)[C@@H]2CCN2C(=O)[C@H](C)N(C)C1=O [Compound 67] ([NMeL]I[NMeA][Aze][NMePhe(4-Me)][Sar][hPhe(3-Cl-4-CF3)][dA][Ac5c][NMeI][NMeD]-NMe2; lactam N-11),8.08
13,CC[C@H](C)[C@@H]1NC(=O)[C@H](C)N(C)C(=O)C[C@@H](C)NC(=O)[C@H](C(C)C)N(C)C(=O)[C@H](Cc2ccccc2)N(C)C(=O)[C@H](CC(C)C)N(C)C(=O)[C@H](CCc2ccc(C(F)(F)F)cc2)NC(=O)CN(C)C(=O)[C@H](Cc2ccc(Cl)cc2)N(C)C(=O)CN(C)C(=O)[C@@H]2CCN2C1=O [Compound 71] (cyclo([Aze][Sar][NMePhe(4-Cl)][Sar][hPhe(4-CF3)][NMeL][NMeF][NMeV][d(β3hA)][NMeA]I)),6.82
14,CC[C@H](C)[C@@H]1NC(=O)[C@H](CC(C)C)N(C)C(=O)C[C@@H](C)NC(=O)[C@H](C(C)C)N(C)C(=O)C2(CCCC2)NC(=O)[C@@H]2CCCN2C(=O)[C@H](CCc2ccc(C(F)(F)F)c(Cl)c2)NC(=O)[C@H]2CCCN2C(=O)[C@H](CC2CCCCC2)N(C)C(=O)CN(C)C(=O)CN(C)C1=O [Compound 76] (cyclo([Ac5c][NMeV][d(β3hA)][NMeL]I[Sar][Sar][NMeCha][dP][hPhe(3-Cl-4-CF3)]P)),6.72
